Results taken from patent US9738634B2, “Heterocyclic amide compound and herbicide” (SYNGENTA PARTICIPATIONS AG, priority 2013, dated 2017).

Tests used:
Format in all cases: in vivo
Conditions in all cases: treatment dosage 320 g/ha
[1] = system: barnyard grass; assay: Test Example 1: weedkilling efficacy, preemergent weed treatment in the submerged state; A: barnyard grass
Procedure, shortened: (§1)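 Alluvial soil in Wagner pots flooded to 4 cm; barnyard grass, bulrush and oval-leafed pondweed seeds sown, then 2.5-leaf rice seedlings transplanted. Same day, emulsified compound diluted in water to set g/ha dosages and applied to water surface; greenhouse 25–30 °C, effect scored by criteria after 3 weeks.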

[2] = system: wild oat; assay: Test Example 3: weedkilling efficacy through soil treatment; G: wild oat
Procedure, shortened: (§2)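 Crop and weed responses were judged three weeks after a uniform surface spray of the water-diluted emulsion at the given g/ha rate. Seeds sat beneath about 1.5 cm of sterilized diluvial soil, and boxes stood in a greenhouse at 25 to 30° C.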

[3] = system: catchweed; assay: Test Example 4: weedkilling efficacy by foliar treatment; O: catchweed
Procedure, shortened: (§3)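 Seeds are spot-sown into sterilized diluvial soil and covered with about 1.5 cm of soil. After 14 days' greenhouse growth at 25 to 30° C, plants are sprayed on stems and leaves with diluted emulsion at the stated g/ha rate, then scored at 3 weeks.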

[4] = system: wheat; assay: Test Example 4: foliar treatment, effect on crop; e: wheat
Procedure, shortened: as §3

[5] = system: oval-leafed pondweed; assay: Test Example 1: weedkilling efficacy, preemergent weed treatment in the submerged state; C: oval-leafed pondweed
Procedure, shortened: as §1

[6] = system: birds-eye speedwell; assay: Test Example 4: weedkilling efficacy by foliar treatment; p: birds-eye speedwell
Procedure, shortened: as §3

[7] = system: green foxtail; assay: Test Example 3: weedkilling efficacy through soil treatment; E: green foxtail
Procedure, shortened: as §2

[8] = system: bulrush; assay: Test Example 1: weedkilling efficacy, preemergent weed treatment in the submerged state; B: bulrush
Procedure, shortened: as §1

[9] = system: barnyard grass; assay: Test Example 4: weedkilling efficacy by foliar treatment; F: barnyard grass
Procedure, shortened: as §3

[10] = system: wheat; assay: Test Example 3: soil treatment, effect on crop; e: wheat
Procedure, shortened: as §2

[11] = system: Indian mallow; assay: Test Example 3: weedkilling efficacy through soil treatment; K: Indian mallow
Procedure, shortened: as §2

[12] = system: beet; assay: Test Example 4: foliar treatment, effect on crop; f: beet
Procedure, shortened: as §3

[13] = system: Indian mallow; assay: Test Example 4: weedkilling efficacy by foliar treatment; K: Indian mallow
Procedure, shortened: as §3

[14] = system: wild oat; assay: Test Example 4: weedkilling efficacy by foliar treatment; G: wild oat
Procedure, shortened: as §3

[15] = system: common wind-grass; assay: Test Example 4: weedkilling efficacy by foliar treatment; J: common wind-grass
Procedure, shortened: as §3

[16] = system: common wind-grass; assay: Test Example 3: weedkilling efficacy through soil treatment; J: common wind-grass
Procedure, shortened: as §2

[17] = system: rapeseed; assay: Test Example 4: foliar treatment, effect on crop; g: rapeseed
Procedure, shortened: as §3

[18] = system: corn; assay: Test Example 3: soil treatment, effect on crop; c: corn
Procedure, shortened: as §2

[19] = system: soybean; assay: Test Example 3: soil treatment, effect on crop; d: soybean
Procedure, shortened: as §2

[20] = system: black-grass; assay: Test Example 3: weedkilling efficacy through soil treatment; H: black-grass
Procedure, shortened: as §2

[21] = system: redroot pigweed; assay: Test Example 4: weedkilling efficacy by foliar treatment; L: redroot pigweed
Procedure, shortened: as §3

[22] = system: barnyard grass; assay: Test Example 2: weedkilling efficacy, growth period weed treatment in the submerged state; A: barnyard grass
Procedure, shortened: (§4)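 First, alluvial soil in pots is flooded to 4 cm and mixed seed is sown. Next, plants grow in a greenhouse at 25 to 30° C until the 1-2 leaf stage. Then diluted emulsion is applied onto the water surface at the given g/ha rate, and injury is assessed after 3 weeks.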

[23] = system: redroot pigweed; assay: Test Example 3: weedkilling efficacy through soil treatment; L: redroot pigweed
Procedure, shortened: as §2

[24] = system: chickweed; assay: Test Example 3: weedkilling efficacy through soil treatment; N: chickweed
Procedure, shortened: as §2

[25] = system: fig-leafed goosefoot; assay: Test Example 4: weedkilling efficacy by foliar treatment; M: fig-leafed goosefoot
Procedure, shortened: as §3

[26] = system: transplanted rice; assay: Test Example 1: preemergent weed treatment in the submerged state, effect on crop; a: transplanted rice
Procedure, shortened: as §1

[27] = system: corn; assay: Test Example 4: foliar treatment, effect on crop; c: corn
Procedure, shortened: as §3

[28] = system: Italian ryegrass; assay: Test Example 4: weedkilling efficacy by foliar treatment; I: Italian ryegrass
Procedure, shortened: as §3

[29] = system: beet; assay: Test Example 3: soil treatment, effect on crop; f: beet
Procedure, shortened: as §2

[30] = system: bulrush; assay: Test Example 2: weedkilling efficacy, growth period weed treatment in the submerged state; B: bulrush
Procedure, shortened: as §4

[31] = system: directly sown rice; assay: Test Example 3: soil treatment, effect on crop; b: directly sown rice
Procedure, shortened: as §2

[32] = system: crabgrass; assay: Test Example 3: weedkilling efficacy through soil treatment; D: crabgrass
Procedure, shortened: as §2

[33] = system: rapeseed; assay: Test Example 3: soil treatment, effect on crop; g: rapeseed
Procedure, shortened: as §2

[34] = system: barnyard grass; assay: Test Example 3: weedkilling efficacy through soil treatment; F: barnyard grass
Procedure, shortened: as §2

[35] = system: crabgrass; assay: Test Example 4: weedkilling efficacy by foliar treatment; D: crabgrass
Procedure, shortened: as §3

[36] = system: oval-leafed pondweed; assay: Test Example 2: weedkilling efficacy, growth period weed treatment in the submerged state; C: oval-leafed pondweed
Procedure, shortened: as §4

[37] = system: black-grass; assay: Test Example 4: weedkilling efficacy by foliar treatment; H: black-grass
Procedure, shortened: as §3

[38] = system: fig-leafed goosefoot; assay: Test Example 3: weedkilling efficacy through soil treatment; M: fig-leafed goosefoot
Procedure, shortened: as §2

[39] = system: chickweed; assay: Test Example 4: weedkilling efficacy by foliar treatment; N: chickweed
Procedure, shortened: as §3

[40] = system: birds-eye speedwell; assay: Test Example 3: weedkilling efficacy through soil treatment; p: birds-eye speedwell
Procedure, shortened: as §2

[41] = system: soybean; assay: Test Example 4: foliar treatment, effect on crop; d: soybean
Procedure, shortened: as §3

[42] = system: Italian ryegrass; assay: Test Example 3: weedkilling efficacy through soil treatment; I: Italian ryegrass
Procedure, shortened: as §2

[43] = system: green foxtail; assay: Test Example 4: weedkilling efficacy by foliar treatment; E: green foxtail
Procedure, shortened: as §3

[44] = system: directly sown rice; assay: Test Example 4: foliar treatment, effect on crop; b: directly sown rice
Procedure, shortened: as §3

For `CC1=C(c2ccccc2)C(=O)N(C(C)(C)C(=O)Nc2cc(C(F)(F)F)cc(F)n2)CO1` [B-2-40], the “A (barnyard grass) weedkilling efficacy grade” value [1] was 5 (weed kill ratio 90% or more, (practically complete withering)), the “G (wild oat) weedkilling efficacy grade” value [2] was 5 (weed kill ratio 90% or more, (practically complete withering)) and the “O (catchweed) weedkilling efficacy grade” value [3] was 5 (weed kill ratio 90% or more, (practically complete withering)). The “e (wheat) effect on crop grade” value [4] was 1 (weed kill ratio 5% or more, less than 20%), the “C (oval-leafed pondweed) weedkilling efficacy grade” value [5] was 5 (weed kill ratio 90% or more, (practically complete withering)) and the “P (birds-eye speedwell) weedkilling efficacy grade” value [6] was 4 (weed kill ratio 70% or more, less than 90%). For the same molecule, the “E (green foxtail) weedkilling efficacy grade” value [7] was 5 (weed kill ratio 90% or more, (practically complete withering)), the “B (bulrush) weedkilling efficacy grade” value [8] was 5 (weed kill ratio 90% or more, (practically complete withering)) and the “F (barnyard grass) weedkilling efficacy grade” value [9] was 5 (weed kill ratio 90% or more, (practically complete withering)). The “e (wheat) effect on crop grade” value [10] was 0 (weed kill ratio 5% or less (practically no effect)), the “K (Indian mallow) weedkilling efficacy grade” value [11] was 5 (weed kill ratio 90% or more, (practically complete withering)) and the “f (beet) effect on crop grade” value [12] was 4 (weed kill ratio 70% or more, less than 90%). The “K (Indian mallow) weedkilling efficacy grade” value [13] was 5 (weed kill ratio 90% or more, (practically complete withering)), the “G (wild oat) weedkilling efficacy grade” value [14] was 5 (weed kill ratio 90% or more, (practically complete withering)) and the “J (common wind-grass) weedkilling efficacy grade” value [15] was 5 (weed kill ratio 90% or more, (practically complete withering)). For the same molecule, the “J (common wind-grass) weedkilling efficacy grade” value [16] was 5 (weed kill ratio 90% or more, (practically complete withering)), the “g (rapeseed) effect on crop grade” value [17] was 4 (weed kill ratio 70% or more, less than 90%) and the “c (corn) effect on crop grade” value [18] was 0 (weed kill ratio 5% or less (practically no effect)). For the same molecule, the “d (soybean) effect on crop grade” value [19] was 2 (weed kill ratio 20% or more, less than 40%), the “H (black-grass) weedkilling efficacy grade” value [20] was 5 (weed kill ratio 90% or more, (practically complete withering)) and the “L (redroot pigweed) weedkilling efficacy grade” value [21] was 5 (weed kill ratio 90% or more, (practically complete withering)). For the same molecule, the “A (barnyard grass) weedkilling efficacy grade” value [22] was 5 (weed kill ratio 90% or more, (practically complete withering)), the “L (redroot pigweed) weedkilling efficacy grade” value [23] was 4 (weed kill ratio 70% or more, less than 90%) and the “N (chickweed) weedkilling efficacy grade” value [24] was 4 (weed kill ratio 70% or more, less than 90%). The “M (fig-leafed goosefoot) weedkilling efficacy grade” value [25] was 5 (weed kill ratio 90% or more, (practically complete withering)), the “a (transplanted rice) effect on crop grade” value [26] was 3 (weed kill ratio 40% or more, less than 70%) and the “c (corn) effect on crop grade” value [27] was 5 (weed kill ratio 90% or more, (practically complete withering)). The “I (Italian ryegrass) weedkilling efficacy grade” value [28] was 5 (weed kill ratio 90% or more, (practically complete withering)), the “f (beet) effect on crop grade” value [29] was 3 (weed kill ratio 40% or more, less than 70%) and the “B (bulrush) weedkilling efficacy grade” value [30] was 5 (weed kill ratio 90% or more, (practically complete withering)). The “b (directly sown rice) effect on crop grade” value [31] was 5 (weed kill ratio 90% or more, (practically complete withering)), the “D (crabgrass) weedkilling efficacy grade” value [32] was 5 (weed kill ratio 90% or more, (practically complete withering)) and the “g (rapeseed) effect on crop grade” value [33] was 4 (weed kill ratio 70% or more, less than 90%). For the same molecule, the “F (barnyard grass) weedkilling efficacy grade” value [34] was 5 (weed kill ratio 90% or more, (practically complete withering)), the “D (crabgrass) weedkilling efficacy grade” value [35] was 5 (weed kill ratio 90% or more, (practically complete withering)) and the “C (oval-leafed pondweed) weedkilling efficacy grade” value [36] was 5 (weed kill ratio 90% or more, (practically complete withering)). For the same molecule, the “H (black-grass) weedkilling efficacy grade” value [37] was 5 (weed kill ratio 90% or more, (practically complete withering)), the “M (fig-leafed goosefoot) weedkilling efficacy grade” value [38] was 5 (weed kill ratio 90% or more, (practically complete withering)) and the “N (chickweed) weedkilling efficacy grade” value [39] was 4 (weed kill ratio 70% or more, less than 90%). For the same molecule, the “P (birds-eye speedwell) weedkilling efficacy grade” value [40] was 5 (weed kill ratio 90% or more, (practically complete withering)), the “d (soybean) effect on crop grade” value [41] was 5 (weed kill ratio 90% or more, (practically complete withering)) and the “I (Italian ryegrass) weedkilling efficacy grade” value [42] was 5 (weed kill ratio 90% or more, (practically complete withering)). For the same molecule, the “E (green foxtail) weedkilling efficacy grade” value [43] was 5 (weed kill ratio 90% or more, (practically complete withering)) and the “b (directly sown rice) effect on crop grade” value [44] was 5 (weed kill ratio 90% or more, (practically complete withering)).
